Read-outs that look alike come from different tables or passages of the source.
What was measured:
c-Raf-1 = c-Raf-1 (Homo sapiens, UniProt P04049); test: c-Raf-1 kinase activity biochemical assay (AlphaScreen, biotin-MEK1 phosphorylation)
Summary of the method: (§1)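 Compounds from a 0.1 mM DMSO stock were tested at 8 serially diluted points. Kinase reactions with 100 μM ATP (final) ran 45 min at room temperature, then were stopped with EDTA buffer containing anti-phospho-MEK1/2 antibody plus streptavidin donor and protein A acceptor beads.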

B-Raf V600E = B-Raf V600E (Homo sapiens (Human), UniProt P15056, V600E); test: B-Raf V600E kinase activity biochemical assay (AlphaScreen, biotin-MEK1 phosphorylation); conditions: for IC50: B-Raf V600E; for Biochemical activity ratio V600E/C: ratio of IC50 B-Raf V600E / c-Raf-1
Summary of the method: as §1

CYP3A4(BFC) = CYP3A4(BFC) (Homo sapiens (Human), UniProt P08684); test: CYP enzyme inhibition, fluorescent substrate BFC
Summary of the method: (§2)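 10-pt 1:1 serial dilution in co-factor mix (DMSO stock 100 mM); 10 min preincubation, 37 °C; reaction at 37 °C. Readout: fluorescent metabolite of probe substrate. IC50 from signal vs [compound].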

[1] = Relative solubility by turbidity threshold concentration in aqueous buffers (pH 1.5, 4.5, 6.8, 7.4); format: physicochemical; conditions: for turbidity threshold (L, M, H) 1.4: pH 1.4 [sic] (method: SGF pH 1.5); for turbidity threshold (L, M, H) 4.5: pH 4.5 (SIF); for turbidity threshold (L, M, H) 6.8: pH 6.8 (SIF); for turbidity threshold (L, M, H) 7.4: pH 7.4 (HEPES)
Summary of the method: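 Solubility class (high >250 μM, moderate 31.3–250 μM, low <31.3 μM) comes from the concentration where absorbance reaches a 0.01 threshold, averaged across 490/535/650 nm. Samples were compound dilutions from DMSO stock, 1 μL into 99 μL buffer at pH 1.5, 4.5, 6.8 or 7.4.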

CYP2D6 = CYP2D6 (Homo sapiens (Human), UniProt P10635); test: CYP enzyme inhibition, fluorescent substrate (AMMC); format: in vitro ADME; conditions: read-out: Cyp IC50 2D6
Summary of the method: (§3)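 IC50 derived from loss of fluorescent metabolite across a 10-point 1:1 dilution series. CYP2D6: 1.5 pmol enzyme, 1.5 μM AMMC, 30 min at 37 °C, 409/530 nm; CYP1A2: 0.5 pmol, 5 μM CEC, 15 min, 409/460 nm. Compounds pre-incubated 10 min in NADPH-regenerating mix.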

CYP2C9 = CYP2C9 (Homo sapiens (Human), UniProt P11712); test: CYP enzyme inhibition, fluorescent substrate (MFC)
Summary of the method: as §2

CYP3A4(BQ) = CYP3A4(BQ) (Homo sapiens (Human), UniProt P08684); test: CYP enzyme inhibition, fluorescent substrate BQ; conditions: read-out: Cyp IC50 3A4(BQ); CYP3A4, substrate BQ
Summary of the method: as §2

CYP1A2 = CYP1A2 (Homo sapiens (Human), UniProt P05177); test: CYP enzyme inhibition, fluorescent substrate (CEC)
Summary of the method: as §3

CYP2C19 = CYP2C19 (Homo sapiens (Human), UniProt P33261); test: CYP enzyme inhibition, fluorescent substrate (CEC)
Summary of the method: as §2

B-Raf [2] = biological target: B-Raf (Homo sapiens (Human), UniProt P15056); test: B-Raf kinase activity biochemical assay (AlphaScreen, biotin-MEK1 phosphorylation); conditions: B-Raf
Summary of the method: as §1

B-Raf [3] = test: as above; conditions: for Biochemical activity ratio B/V600E: ratio of IC50 B-Raf / B-Raf V600E; for Biochemical activity ratio B/C: ratio of IC50 B-Raf / c-Raf-1
Summary of the method: as §1

[4] = read-out: Cyp IC50 3A4(BFC), CYP3A4, substrate BFC
[5] = read-out: Cyp IC50 2C9, CYP2C9, substrate MFC
[6] = read-out: Cyp IC50 1A2, CYP1A2, substrate CEC
[7] = read-out: Cyp IC50 2C19, CYP2C19, substrate CEC

Chain of CYP2D6 (P10635 whole entry): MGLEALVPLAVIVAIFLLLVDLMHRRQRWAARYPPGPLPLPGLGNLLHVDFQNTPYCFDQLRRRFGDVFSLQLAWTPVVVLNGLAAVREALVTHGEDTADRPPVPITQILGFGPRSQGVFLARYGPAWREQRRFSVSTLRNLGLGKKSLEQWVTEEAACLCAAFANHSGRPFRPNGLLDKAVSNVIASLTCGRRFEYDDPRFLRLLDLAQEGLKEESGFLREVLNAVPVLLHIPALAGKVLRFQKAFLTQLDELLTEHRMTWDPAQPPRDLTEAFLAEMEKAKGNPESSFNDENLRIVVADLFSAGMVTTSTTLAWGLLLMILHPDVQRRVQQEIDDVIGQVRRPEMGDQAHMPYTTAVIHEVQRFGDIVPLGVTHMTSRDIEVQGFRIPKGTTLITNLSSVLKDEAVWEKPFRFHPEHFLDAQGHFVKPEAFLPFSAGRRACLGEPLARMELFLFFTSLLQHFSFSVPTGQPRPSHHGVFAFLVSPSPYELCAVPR
Chain of CYP2C19 (P33261 whole entry): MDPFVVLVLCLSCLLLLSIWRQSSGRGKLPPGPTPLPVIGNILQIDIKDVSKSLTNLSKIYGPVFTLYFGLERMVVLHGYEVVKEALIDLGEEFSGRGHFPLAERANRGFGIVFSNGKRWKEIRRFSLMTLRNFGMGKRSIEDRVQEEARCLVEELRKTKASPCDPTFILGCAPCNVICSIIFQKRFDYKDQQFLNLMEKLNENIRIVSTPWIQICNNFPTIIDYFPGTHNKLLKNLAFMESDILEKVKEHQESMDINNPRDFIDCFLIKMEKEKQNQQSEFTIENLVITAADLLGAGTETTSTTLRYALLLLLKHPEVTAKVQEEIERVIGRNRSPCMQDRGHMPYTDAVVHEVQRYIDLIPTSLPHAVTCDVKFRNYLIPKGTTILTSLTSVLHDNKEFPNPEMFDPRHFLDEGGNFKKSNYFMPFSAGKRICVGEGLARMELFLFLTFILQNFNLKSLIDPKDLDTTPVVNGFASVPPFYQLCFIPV
Chain of CYP1A2 (P05177 whole entry): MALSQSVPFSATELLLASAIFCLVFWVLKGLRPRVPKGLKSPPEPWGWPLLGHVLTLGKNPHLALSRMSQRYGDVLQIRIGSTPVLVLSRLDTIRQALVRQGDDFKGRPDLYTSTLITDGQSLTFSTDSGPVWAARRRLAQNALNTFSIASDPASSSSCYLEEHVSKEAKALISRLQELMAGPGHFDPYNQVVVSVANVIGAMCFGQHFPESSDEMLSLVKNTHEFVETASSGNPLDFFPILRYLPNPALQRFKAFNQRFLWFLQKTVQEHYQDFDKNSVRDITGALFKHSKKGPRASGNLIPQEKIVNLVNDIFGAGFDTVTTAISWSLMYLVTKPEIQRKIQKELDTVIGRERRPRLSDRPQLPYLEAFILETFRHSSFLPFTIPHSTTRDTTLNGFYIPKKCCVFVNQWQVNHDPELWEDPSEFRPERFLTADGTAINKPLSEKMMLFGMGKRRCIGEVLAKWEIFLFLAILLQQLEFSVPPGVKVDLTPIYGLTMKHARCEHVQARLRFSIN
Chain of B-Raf (Homo sapiens (Human), UniProt P15056) (P15056 whole entry): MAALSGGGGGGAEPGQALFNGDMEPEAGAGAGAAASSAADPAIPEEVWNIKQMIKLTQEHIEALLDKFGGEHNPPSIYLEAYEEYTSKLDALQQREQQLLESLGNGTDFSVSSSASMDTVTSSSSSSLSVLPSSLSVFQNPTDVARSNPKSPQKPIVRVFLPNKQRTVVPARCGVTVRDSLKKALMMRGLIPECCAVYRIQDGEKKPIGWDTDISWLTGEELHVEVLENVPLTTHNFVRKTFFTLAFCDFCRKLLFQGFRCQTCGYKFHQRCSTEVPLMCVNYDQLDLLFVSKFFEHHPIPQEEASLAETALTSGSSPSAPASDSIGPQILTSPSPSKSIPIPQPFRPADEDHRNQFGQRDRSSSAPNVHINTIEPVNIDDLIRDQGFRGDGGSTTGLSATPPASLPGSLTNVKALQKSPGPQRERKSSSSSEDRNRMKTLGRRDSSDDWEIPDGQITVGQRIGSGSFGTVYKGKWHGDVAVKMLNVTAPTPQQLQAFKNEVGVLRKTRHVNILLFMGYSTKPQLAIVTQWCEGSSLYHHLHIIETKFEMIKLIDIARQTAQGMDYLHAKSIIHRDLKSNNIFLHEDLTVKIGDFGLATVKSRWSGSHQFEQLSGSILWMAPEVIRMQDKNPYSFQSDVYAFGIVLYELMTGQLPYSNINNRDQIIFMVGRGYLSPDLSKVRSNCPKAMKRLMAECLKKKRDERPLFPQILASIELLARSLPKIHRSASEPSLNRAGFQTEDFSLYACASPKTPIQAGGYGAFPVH
Chain of B-Raf V600E (P15056 whole entry V600E): as the sequence (P15056 whole entry) above, with V600E counted along it
Chain of c-Raf-1 (P04049 whole entry, looked up): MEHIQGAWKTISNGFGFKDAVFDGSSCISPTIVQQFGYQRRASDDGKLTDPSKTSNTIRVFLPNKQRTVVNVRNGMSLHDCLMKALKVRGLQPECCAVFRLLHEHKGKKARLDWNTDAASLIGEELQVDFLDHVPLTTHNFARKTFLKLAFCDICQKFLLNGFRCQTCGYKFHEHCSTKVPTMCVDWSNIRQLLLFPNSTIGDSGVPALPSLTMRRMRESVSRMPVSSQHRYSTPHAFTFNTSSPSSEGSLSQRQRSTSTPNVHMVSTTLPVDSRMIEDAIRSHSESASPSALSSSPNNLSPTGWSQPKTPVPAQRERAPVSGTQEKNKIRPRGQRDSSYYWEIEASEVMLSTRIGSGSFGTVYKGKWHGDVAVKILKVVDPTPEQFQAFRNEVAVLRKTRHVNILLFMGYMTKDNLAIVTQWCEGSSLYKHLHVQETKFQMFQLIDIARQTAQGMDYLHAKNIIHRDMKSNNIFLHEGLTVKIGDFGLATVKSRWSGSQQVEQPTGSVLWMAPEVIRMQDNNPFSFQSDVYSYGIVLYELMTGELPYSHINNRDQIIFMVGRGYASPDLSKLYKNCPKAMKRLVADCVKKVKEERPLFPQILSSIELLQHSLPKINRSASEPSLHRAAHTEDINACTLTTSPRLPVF
Chain of CYP2C9 (P11712 whole entry): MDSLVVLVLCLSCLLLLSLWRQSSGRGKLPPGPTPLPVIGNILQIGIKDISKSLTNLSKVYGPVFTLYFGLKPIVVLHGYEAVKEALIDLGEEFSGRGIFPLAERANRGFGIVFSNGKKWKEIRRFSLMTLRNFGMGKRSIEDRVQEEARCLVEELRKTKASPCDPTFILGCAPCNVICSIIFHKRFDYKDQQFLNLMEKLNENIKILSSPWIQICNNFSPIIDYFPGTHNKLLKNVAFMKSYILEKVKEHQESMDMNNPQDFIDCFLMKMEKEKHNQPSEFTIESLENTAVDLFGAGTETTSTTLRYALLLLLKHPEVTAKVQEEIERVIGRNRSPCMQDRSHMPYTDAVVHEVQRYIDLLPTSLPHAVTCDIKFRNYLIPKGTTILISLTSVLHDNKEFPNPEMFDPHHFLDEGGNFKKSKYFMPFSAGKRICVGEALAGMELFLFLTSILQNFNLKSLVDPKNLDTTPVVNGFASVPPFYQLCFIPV
Chain of CYP3A4(BQ) (P08684 whole entry): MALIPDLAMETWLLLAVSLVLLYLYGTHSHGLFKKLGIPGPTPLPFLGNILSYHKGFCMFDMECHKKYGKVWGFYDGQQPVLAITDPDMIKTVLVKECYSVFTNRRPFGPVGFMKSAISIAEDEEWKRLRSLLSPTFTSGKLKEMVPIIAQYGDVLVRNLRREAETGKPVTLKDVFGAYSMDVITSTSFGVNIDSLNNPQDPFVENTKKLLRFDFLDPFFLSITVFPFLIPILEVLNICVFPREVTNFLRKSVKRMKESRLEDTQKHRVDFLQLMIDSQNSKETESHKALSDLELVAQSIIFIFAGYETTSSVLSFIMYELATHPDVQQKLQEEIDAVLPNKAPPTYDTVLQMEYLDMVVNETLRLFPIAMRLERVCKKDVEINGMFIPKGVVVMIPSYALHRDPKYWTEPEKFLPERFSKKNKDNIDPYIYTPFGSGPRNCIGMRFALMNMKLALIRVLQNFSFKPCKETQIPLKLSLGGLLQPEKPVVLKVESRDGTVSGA
Chain of CYP3A4(BFC) (P08684 whole entry): as above

| SMILES | IC50 (c-Raf-1) [µM] | IC50 (B-Raf V600E) [µM] | Biochemical activity ratio V600E/C (B-Raf V600E) | IC50 (CYP3A4(BFC); [4]) [µM] | turbidity threshold (L, M, H) 1.4 [1] | turbidity threshold (L, M, H) 4.5 [1] | turbidity threshold (L, M, H) 6.8 [1] | turbidity threshold (L, M, H) 7.4 [1] | IC50 (CYP2D6) [µM] | IC50 (CYP2C9; [5]) [µM] | IC50 (CYP3A4(BQ)) [µM] | IC50 (CYP1A2; [6]) [µM] | IC50 (CYP2C19; [7]) [µM] | IC50 (B-Raf [2]) [µM] | Biochemical activity ratio B/V600E (B-Raf [3]) | Biochemical activity ratio B/C (B-Raf [3]) | IC50 (CYP3A4(BFC)) [µM] | IC50 (CYP1A2; human, 15 min) [µM] | IC50 (CYP2C19) [µM] | IC50 (CYP2C9) [µM] |
| --- | --- | --- | --- | --- | --- | --- | --- | --- | --- | --- | --- | --- | --- | --- | --- | --- | --- | --- | --- | --- |
| O=C(c1c(F)ccc(NS(=O)(=O)c2ccc(C(F)(F)F)cc2)c1F)c1c[nH]c2ncnc(O)c12 [P-1012, N-[2,4-Difluoro-3-(4-hydroxy-7H-pyrrolo[2,3-d]pyrimidine-5-carbonyl)-phenyl]-4-trifluoromethyl-benzenesulfonamide] | < 0.1 | > 0.1 | >10 | > 10 | M (moderate solubility if the threshold concentration is 31.3 μM to 250 μM) | M (moderate solubility if the threshold concentration is 31.3 μM to 250 μM) | H (high solubility if the threshold concentration is >250 μm) | H (high solubility if the threshold concentration is >250 μm) | > 10 | > 10 | > 10 | > 10 | > 10 | > 0.1 | 0.1-10 | 0.1-10 | – | – | – | – |
| O=C(c1c(F)ccc(NS(=O)(=O)c2ccc(C(F)(F)F)cc2)c1F)c1c[nH]c2ncnc(NC3CCOCC3)c12 [P-1013, N-{2,4-Difluoro-3-[4-(tetrahydro-pyran-4-ylamino)-7H-pyrrolo[2,3-d]pyrimidine-5-carbonyl]-phenyl}-4-trifluoromethyl-benzenesulfonamide] | < 0.1 | > 0.1 | >10 | > 10 | L (low solubility if the threshold concentration is <31.3 μM) | L (low solubility if the threshold concentration is <31.3 μM) | L (low solubility if the threshold concentration is <31.3 μM) | M (moderate solubility if the threshold concentration is 31.3 μM to 250 μM) | > 10 | > 10 | > 10 | > 10 | > 10 | < 0.1 | 0.1-10 | >10 | – | – | – | – |
| CCCc1ccc(S(=O)(=O)Nc2ccc(F)c(C(=O)c3c[nH]c4ncnc(NC5CC5)c34)c2F)cc1 [P-1040, N-[3-(4-cyclopropylamino-7H-pyrrolo[2,3-d]pyrimidine-5-carbonyl)-2,4-difluoro-phenyl]-4-propyl-benzenesulfonamide] | < 0.1 | > 0.1 | >10 | – | M (moderate solubility if the threshold concentration is 31.3 μM to 250 μM) | L (low solubility if the threshold concentration is <31.3 μM) | L (low solubility if the threshold concentration is <31.3 μM) | L (low solubility if the threshold concentration is <31.3 μM) | > 10 | > 10 | > 10 | – | > 10 | < 0.1 | 0.1-10 | 0.1-10 | 5 to 10 | > 10 | – | – |
| CCc1ccc(S(=O)(=O)Nc2ccc(F)c(C(=O)c3c[nH]c4ncnc(NC(C)C)c34)c2F)cc1 [P-1042, N-[2,4-Difluoro-3-(4-isopropylamino-7H-pyrrolo[2,3-d]pyrimidine-5-carbonyl)-phenyl]-4-ethyl-benzenesulfonamide] | < 0.1 | < 0.1 | >10 | > 10 | M (moderate solubility if the threshold concentration is 31.3 μM to 250 μM) | L (low solubility if the threshold concentration is <31.3 μM) | L (low solubility if the threshold concentration is <31.3 μM) | L (low solubility if the threshold concentration is <31.3 μM) | > 10 | > 10 | > 10 | – | – | < 0.1 | 0.1-10 | 0.1-10 | – | > 10 | 5 to 10 | – |
| O=C(c1c(F)ccc(NS(=O)(=O)c2ccc(C(F)(F)F)cc2)c1F)c1c[nH]c2ncnc(NCCO)c12 [P-1043, N-{2,4-Difluoro-3-[4-(2-hydroxy-ethylamino)-7H-pyrrolo[2,3-d]pyrimidine-5-carbonyl]-phenyl}-4-trifluoromethyl-benzenesulfonamide] | < 0.1 | > 0.1 | >10 | > 10 | H (high solubility if the threshold concentration is >250 μm) | M (moderate solubility if the threshold concentration is 31.3 μM to 250 μM) | M (moderate solubility if the threshold concentration is 31.3 μM to 250 μM) | M (moderate solubility if the threshold concentration is 31.3 μM to 250 μM) | > 10 | > 10 | > 10 | – | > 10 | < 0.1 | 0.1-10 | >10 | – | > 10 | – | – |
| CC(C)Nc1ncnc2[nH]cc(C(=O)c3c(F)ccc(NS(=O)(=O)c4ccc(C(C)C)cc4)c3F)c12 [P-1044, N-[2,4-Difluoro-3-(4-isopropylamino-7H-pyrrolo[2,3-d]pyrimidine-5-carbonyl)-phenyl]-4-isopropyl-benzenesulfonamide] | < 0.1 | > 0.1 | >10 | > 10 | M (moderate solubility if the threshold concentration is 31.3 μM to 250 μM) | M (moderate solubility if the threshold concentration is 31.3 μM to 250 μM) | M (moderate solubility if the threshold concentration is 31.3 μM to 250 μM) | M (moderate solubility if the threshold concentration is 31.3 μM to 250 μM) | > 10 | > 10 | > 10 | – | < 5 | < 0.1 | 0.1-10 | >10 | – | > 10 | – | – |
| Cc1cc(C)cc(S(=O)(=O)Nc2ccc(F)c(C(=O)c3c[nH]c4ncnc(NC(C)C)c34)c2F)c1 [P-1045, N-[2,4-Difluoro-3-(4-isopropylamino-7H-pyrrolo[2,3-d]pyrimidine-5-carbonyl)-phenyl]-3,5-dimethyl-benzenesulfonamide] | < 0.1 | < 0.1 | 0.1-10 | – | M (moderate solubility if the threshold concentration is 31.3 μM to 250 μM) | L (low solubility if the threshold concentration is <31.3 μM) | L (low solubility if the threshold concentration is <31.3 μM) | L (low solubility if the threshold concentration is <31.3 μM) | > 10 | – | > 10 | > 10 | < 5 | > 0.1 | 0.1-10 | >10 | 5 to 10 | – | – | 5 to 10 |
| CCCc1ccc(S(=O)(=O)Nc2ccc(F)c(C(=O)c3c[nH]c4ncnc(NC5CCOCC5)c34)c2F)cc1 [P-1046, N-{2,4-Difluoro-3-[4-(tetrahydro-pyran-4-ylamino)-7H-pyrrolo[2,3-d]pyrimidine-5-carbonyl]-phenyl}-4-propyl-benzenesulfonamide] | < 0.1 | > 0.1 | >10 | > 10 | M (moderate solubility if the threshold concentration is 31.3 μM to 250 μM) | L (low solubility if the threshold concentration is <31.3 μM) | L (low solubility if the threshold concentration is <31.3 μM) | L (low solubility if the threshold concentration is <31.3 μM) | > 10 | > 10 | > 10 | – | > 10 | < 0.1 | 0.1-10 | >10 | – | > 10 | – | – |

Source: patent US9617267B2, “Compounds and methods for kinase modulation, and indications therefor” (Plexxikon Inc., priority 2009, dated 2017)
